Test results as given in patent US20040096356A1, “Assay device for determining analytes in a liquid dairy product” (priority 1997, published 2004).

Assays:
Assay type in all cases: binding
receptor BlaR-CTD [1] = target: T1, receptor BlaR-CTD (Bacillus licheniformis, UniProt P12287); assay: Five minutes test: strip test for β-lactam antibiotics in milk using BlaR-CTD; conditions: for lowest concentration detected in a milk sample: in 5 minutes, positive when first band is less intense than second band; for Intensity 1st band: scale 0 to 10, reference band 6, 47° C., 3 min incubation + 2 min migration
T1 construct: the receptor BlaR-CTD is the carboxy-terminal region of BlaR
Text: (§1) According to a preferred embodiment of the invention an identifier is used which comprises a receptor sensitive to antibiotics having a β-lactam ring, which receptor is obtained from Bacillus licheniformis, such as the receptor BlaR or the receptor BlaR-CTD. The isolation and the peptide sequence of the protein BlaR are described in Y. Zhu et al., J. Bacteriol., 1137-1141 (1990); the receptor BlaR-CTD is the carboxy-terminal region of BlaR, whose isolation and peptide sequence are described in B. Joris et al., FEMS Microbiology Letters, 107-114 (1990).
(§2) This example illustrates the detection in milk of antibiotics having a β-lactam ring which are monitored by the health authorities. The test described in this example uses the receptor BlaR-CTD coupled with gold beads, which serve as labelling agents, and uses a support which is in the form of an assay device comprising a solid support on which membranes are fixed.
(§3) 3.79 ml of a solution of recognition agent BlaR-CTD having a concentration of 6.6 mg/ml are taken up in a sodium phosphate buffer, 20 mM pH 7. To this solution of BlaR-CTD are then added 41.71 ml of bicarbonate buffer (0.1 M sodium bicarbonate, pH 9) and 2 ml of a solution of N-hydroxysuccinimide 6-(biotinamido)caproic ester containing 2.23 mg/ml likewise of bicarbonate buffer. This solution is stirred gently on a LABINCO stirrer for tubes on a rotary axis (available from VEL, Belgium) at a rate of 2 revolutions/minute for 2 hours at ambient temperature and away from light. 2.5 ml of a solution of Tris buffer, 1 M pH 8 are incubated with the reaction mixture under the same conditions for 30 minutes. The solution thus obtained is dialysed against HNM buffer (Hepes 100 mM, pH 8, NaCl 100 mM, MgCl2 50 mM) for 24 hours. In this way a biotinylated BlaR-CTD solution is obtained which is diluted in HNM-BSA buffer (Hepes 500 mM, pH 8, NaCl 500 mM, MgCl2 250 mM, BSA 10 mg/ml) to a concentration of 250 μg of biotinylated BlaR-CTD per ml of buffer. This solution is stored at −20° C.
(§4) The biotinylated BlaR-CTD solution prepared in Example 3.1.1 is diluted 114.7 times with the HNM-BSA buffer (Hepes 500 mM, pH 8, NaCl 500 mM, MgCl2 250 mM, BSA 10 mg/ml). At room temperature, 22.5 parts by volume of this dilute biotinylated BlaR-CTD solution, 7.5 parts by volume of HNM-BSA buffer, 9.27 parts by volume of the gold particle suspension used to label the biotinylated BlaR-CTD and 6 parts by volume of reference gold particle suspension are mixed (see Example 3.1.4 below).
(§5) The first capture substance makes it possible to fix the BlaR-CTD coupled with the gold beads present in excess relative to the quantity of antibiotic present in the sample.
(§6) Assay devices containing membranes (2), (3) and (4) are used, assembled in accordance with the procedure described in Example 1.1. The membrane (3) of these devices carries on the proximal side the capture substance described in Example 32.1. and on the distal side the capture substance described in Example 3.2.2. The capture substances were deposited in accordance with the procedure described in Example 1.2.
Six samples of fresh milk are prepared, containing 0; 2; 4; 6; 8 and 10 ppb, repsectively, of cloxacillin. Each of these solutions is then analysed as follows.
An aliquot is taken of 200 μl of milk sample and 45.27 μl of solution prepared in Example 3.1.3, and is placed in a glass flask. This mixture is incubated at 47° C. for 3 minutes. An assay device is taken and is placed vertically in the glass flask such that the first end of the assay device is in contact with the mixture in such a way that the second end rests on the wall of the glass flask. The mixture is allowed to migrate over the assay device while the assembly is incubated at 47° C. for 2 minutes.
(§7) An intensity value ranging from 0 to 10 is awarded to the bands detected, the value 10 being given to the most intense band and the value 0 being given to the least intense band. On this scale, a value of 6 is awarded to the reference band. […]

receptor BlaR-CTD [2] = target: T1, receptor BlaR-CTD; assay: 9-minute test: strip test for β-lactam antibiotics in milk using BlaR-CTD; conditions: for lowest concentration detected in a milk sample: in 9 minutes, positive when first band is less intense than second band; for Intensity 1st band: scale 0 to 10, reference band 6, 47° C., 7 min incubation + 2 min migration
Text: as §1, §2, §3, §4, §5, §6
Six samples of fresh milk are prepared, containing 0; 4; 6; 8; 10 and 12 ppb, respectively, of cephapirin. Each of these solutions is then analysed as follows.
An aliquot is taken of 200 μl of milk sample and 45.27 μl of solution prepared in Example 3.1.3, and is placed in a glass flask. This mixture is incubated at 47° C. for 7 minutes. An assay device is taken and is placed vertically in the glass flask such that the first end of the assay device is in contact with the mixture in such a way that the second end rests on the wall of the glass flask. The mixture is allowed to migrate over the assay device while the assembly is incubated at 47° C. for 2 minutes.
as §7

receptor BlaR-CTD [3] = target: T1, receptor BlaR-CTD; assay: 20-minute test: strip test for β-lactam antibiotics in milk using BlaR-CTD; conditions: for Intensity 1st band: scale 0 to 10, reference band 6, 47° C., 18 min incubation + 2 min migration
Text: as §1, §2, §3, §4, §5, §6
Six samples of fresh milk are prepared, containing 0; 20; 30; 40; 50 and 60 ppb, respectively, of ceftiofur. Each of these solutions is then analysed as follows.
An aliquot is taken of 200 μl of milk sample and 45.27 μl of solution prepared in Example 3.1.3, and is placed in a glass flask. This mixture is incubated at 47° C. for 18 minutes. An assay device is taken and is placed vertically in the glass flask such that the first end of the assay device is in contact with the mixture in such a way that the second end rests on the wall of the glass flask. The mixture is allowed to migrate over the assay device while the assembly is incubated at 47° C. for 2 minutes.
An intensity value ranging from 0 to 10 is awarded to the bands detected, the value 10 being given to the most intense band and the value 0 being given to the least intense band. On this scale, a value 6 is awarded to the reference band. […]

receptor BlaR-CTD [4] = target: T1, receptor BlaR-CTD; assay: 3-minute rapid test: strip test for β-lactam antibiotics in milk using BlaR-CTD; conditions: in 3 minutes; positive when first band is less intense than second band
Text: as §1, §2, §3, §4, §5, §6
7 samples of fresh milk are prepared, containing 0; 1; 2; 3; 4; 5 and 6 ppb, respectively, of penicillin G. Each of these solutions is then analysed as follows.
An aliquot is taken of 200 μl of milk sample and 45.27 μl of solution prepared in Example 3.1.3, and is placed in a glass flask. This mixture is incubated at 47° C. for 1 minute. An assay device is taken and is placed vertically in the glass flask such that the first end of the assay device is in contact with the mixture and such that the second end rests on the wall of the glass flask. The mixture is allowed to migrate over the assay device while the assembly is incubated at 47° C. for 2 minutes.
as §7

T1 sequence (P12287 340-601): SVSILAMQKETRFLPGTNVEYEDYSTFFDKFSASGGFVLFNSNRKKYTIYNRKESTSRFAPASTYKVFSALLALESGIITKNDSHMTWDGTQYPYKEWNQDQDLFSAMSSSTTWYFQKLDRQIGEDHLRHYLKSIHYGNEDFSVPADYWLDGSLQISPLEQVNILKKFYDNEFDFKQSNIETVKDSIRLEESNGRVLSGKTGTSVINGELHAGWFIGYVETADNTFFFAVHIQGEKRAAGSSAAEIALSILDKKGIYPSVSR

SMILES: CO/N=C(\C(=O)N[C@@H]1C(=O)N2C(C(=O)O)=C(CSC(=O)c3ccco3)CS[C@H]12)c1csc(N)n1 [Ceftiofur, ceftiofur]
- lowest concentration detected in a milk sample (receptor BlaR-CTD [1]): 100 ppb
- lowest concentration detected in a milk sample (receptor BlaR-CTD [2]): 80 ppb
- Intensity 1st band (receptor BlaR-CTD [3]; 20 ppb ceftiofur in fresh milk): 6
- Intensity 1st band (receptor BlaR-CTD [3]; 30 ppb ceftiofur in fresh milk): 5
- Intensity 1st band (receptor BlaR-CTD [3]; 40 ppb ceftiofur in fresh milk): 4
- Intensity 1st band (receptor BlaR-CTD [3]; 50 ppb ceftiofur in fresh milk): 3
- Intensity 1st band (receptor BlaR-CTD [3]; 60 ppb ceftiofur in fresh milk): 3
- lowest concentration detected in a milk sample (receptor BlaR-CTD [3]; in 20 minutes, positive when first band is less intense than second band): 30 ppb

SMILES: CC(=O)OCC1=C(C(=O)O)N2C(=O)[C@@H](NC(=O)CSc3ccncc3)[C@H]2SC1 [Cephapirin, cephapirin]
- lowest concentration detected in a milk sample (receptor BlaR-CTD [4]): 20 ppb
- lowest concentration detected in a milk sample (receptor BlaR-CTD [1]): 16 ppb
- Intensity 1st band (receptor BlaR-CTD [2]; 4 ppb cephapirin in fresh milk): 6
- Intensity 1st band (receptor BlaR-CTD [2]; 6 ppb cephapirin in fresh milk): 5
- Intensity 1st band (receptor BlaR-CTD [2]; 8 ppb cephapirin in fresh milk): 4
- Intensity 1st band (receptor BlaR-CTD [2]; 10 ppb cephapirin in fresh milk): 3
- Intensity 1st band (receptor BlaR-CTD [2]; 12 ppb cephapirin in fresh milk): 3
- lowest concentration detected in a milk sample (receptor BlaR-CTD [2]): 6 ppb

SMILES: Cc1onc(-c2ccccc2Cl)c1C(=O)N[C@@H]1C(=O)N2[C@@H]1SC(C)(C)[C@@H]2C(=O)O [Cloxacillin, cloxacillin]
- lowest concentration detected in a milk sample (receptor BlaR-CTD [4]): less than 10 ppb
- Intensity 1st band (receptor BlaR-CTD [1]; 2 ppb cloxacillin in fresh milk): 6
- Intensity 1st band (receptor BlaR-CTD [1]; 4 ppb cloxacillin in fresh milk): 5
- Intensity 1st band (receptor BlaR-CTD [1]; 6 ppb cloxacillin in fresh milk): 3
- Intensity 1st band (receptor BlaR-CTD [1]; 8 ppb cloxacillin in fresh milk): 3
- Intensity 1st band (receptor BlaR-CTD [1]; 10 ppb cloxacillin in fresh milk): 3
- lowest concentration detected in a milk sample (receptor BlaR-CTD [1]): 4 ppb
- lowest concentration detected in a milk sample (receptor BlaR-CTD [2]): 4 ppb

SMILES: CC1(C)S[C@@H]2[C@H](NC(=O)[C@H](N)c3ccc(O)cc3)C(=O)N2[C@H]1C(=O)O [amoxicillin]
- lowest concentration detected in a milk sample (receptor BlaR-CTD [4]): 5 ppb
- lowest concentration detected in a milk sample (receptor BlaR-CTD [1]): 4 ppb
- lowest concentration detected in a milk sample (receptor BlaR-CTD [2]): 4 ppb

SMILES: CC1(C)S[C@@H]2[C@H](NC(=O)[C@H](N)c3ccccc3)C(=O)N2[C@H]1C(=O)O [ampicillin]
- lowest concentration detected in a milk sample (receptor BlaR-CTD [4]): 5 ppb
- lowest concentration detected in a milk sample (receptor BlaR-CTD [1]): 4 ppb
- lowest concentration detected in a milk sample (receptor BlaR-CTD [2]): 4 ppb

SMILES: Cc1nnc(SCC2=C(C(=O)O)N3C(=O)[C@@H](NC(=O)Cn4cnnn4)[C@H]3SC2)s1 [cefazolin]
- lowest concentration detected in a milk sample (receptor BlaR-CTD [1]): 60 ppb
- lowest concentration detected in a milk sample (receptor BlaR-CTD [2]): 45 ppb

SMILES: CO/N=C(\C(=O)N[C@@H]1C(=O)N2C(C(=O)[O-])=C(C[n+]3cccc4c3CCCC4)CS[C@H]12)c1csc(N)n1 [cefquinone]
- lowest concentration detected in a milk sample (receptor BlaR-CTD [1]): less than 20 ppb
- lowest concentration detected in a milk sample (receptor BlaR-CTD [2]): less than 20 ppb

SMILES: Cc1onc(-c2c(Cl)cccc2Cl)c1C(=O)N[C@@H]1C(=O)N2[C@@H]1SC(C)(C)[C@@H]2C(=O)O [dicloxacillin]
- lowest concentration detected in a milk sample (receptor BlaR-CTD [1]): 8 ppb
- lowest concentration detected in a milk sample (receptor BlaR-CTD [2]): 8 ppb

SMILES: CCOc1ccc2ccccc2c1C(=O)N[C@@H]1C(=O)N2[C@@H]1SC(C)(C)[C@@H]2C(=O)O [nafcillin]
- lowest concentration detected in a milk sample (receptor BlaR-CTD [1]): 20 ppb
- lowest concentration detected in a milk sample (receptor BlaR-CTD [2]): 20 ppb

SMILES: Cc1onc(-c2ccccc2)c1C(=O)N[C@@H]1C(=O)N2[C@@H]1SC(C)(C)[C@@H]2C(=O)O [oxacillin]
- lowest concentration detected in a milk sample (receptor BlaR-CTD [1]): 8 ppb
- lowest concentration detected in a milk sample (receptor BlaR-CTD [2]): 8 ppb
